Test results published in patent publication US20180298010A1, “PRMT5 INHIBITORS AND USES THEREOF” (Epizyme, Inc., priority 2012, published 2018).

Target: T1, PRMT5/MEP50 (Homo sapiens, UniProt O14744)
T1 construct: Flag-PRMT5; 6His-MEP50
Assay: PRMT5 Biochemical Assay (PRMT5/MEP50 enzyme assay on peptide substrate, 3H-SAM Flashplate)
Details: not given
Procedure, shortened: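 FLAG-PRMT5/His-MEP50 from Sf9 cells (4 nM) preincubated 30 min at 25 °C with compound in 20 mM Bicine pH 7.6, 1 mM TCEP, 1% DMSO. Reaction started with 75 nM 3H-SAM on 40 nM biotinylated H4 1-15 peptide, stopped with cold SAM. Bound 3H-peptide counted on streptavidin Flashplates, normalised to DMSO and 100 uM SAH controls.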

T1 sequence (O14744 with tags, fused parts or gaps): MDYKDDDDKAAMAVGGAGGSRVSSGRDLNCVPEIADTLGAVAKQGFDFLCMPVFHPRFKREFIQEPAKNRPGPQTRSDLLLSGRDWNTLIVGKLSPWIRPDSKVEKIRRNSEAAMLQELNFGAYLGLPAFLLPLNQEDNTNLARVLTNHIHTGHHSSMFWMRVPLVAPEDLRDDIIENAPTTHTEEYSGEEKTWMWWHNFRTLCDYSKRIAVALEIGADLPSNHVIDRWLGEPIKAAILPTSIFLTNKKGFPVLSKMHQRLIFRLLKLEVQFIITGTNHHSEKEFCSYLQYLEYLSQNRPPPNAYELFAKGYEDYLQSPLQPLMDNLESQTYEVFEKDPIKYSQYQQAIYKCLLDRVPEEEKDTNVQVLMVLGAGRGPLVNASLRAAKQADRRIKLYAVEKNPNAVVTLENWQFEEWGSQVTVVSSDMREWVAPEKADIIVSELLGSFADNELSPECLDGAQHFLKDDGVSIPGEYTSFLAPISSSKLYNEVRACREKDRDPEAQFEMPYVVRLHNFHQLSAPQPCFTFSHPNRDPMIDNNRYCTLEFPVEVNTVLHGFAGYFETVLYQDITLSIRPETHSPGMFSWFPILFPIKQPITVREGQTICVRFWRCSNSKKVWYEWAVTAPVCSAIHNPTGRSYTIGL
T1 sequence (Q9BQA1 with tags, fused parts or gaps partner): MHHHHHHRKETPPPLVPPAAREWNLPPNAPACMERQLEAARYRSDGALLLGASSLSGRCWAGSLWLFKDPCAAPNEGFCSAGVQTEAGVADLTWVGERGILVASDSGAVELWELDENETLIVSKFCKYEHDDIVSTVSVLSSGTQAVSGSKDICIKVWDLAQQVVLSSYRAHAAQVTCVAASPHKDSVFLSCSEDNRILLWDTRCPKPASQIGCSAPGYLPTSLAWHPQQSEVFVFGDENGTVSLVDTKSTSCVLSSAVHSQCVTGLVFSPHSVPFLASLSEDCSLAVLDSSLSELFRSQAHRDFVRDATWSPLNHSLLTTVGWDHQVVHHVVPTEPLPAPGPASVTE

Row | IC50 [µM] | Compound
1 | 1 to 10 | CC(C)(C)OC(=O)N1CC(OCC(O)CN2CCc3ccccc3C2)C1 (stereo not shown) [Compound 290]
2 | 1 to 10 | CC(C)(C)OC(=O)N1CCCC(OCC(O)CN2CCc3ccccc3C2)C1 (stereo not shown) [Compound 291]
3 | 1 to 10 | CC(C)(C)OC(=O)N1CCC(OCC(O)CN2CCc3ccccc3C2)CC1 (stereo not shown) [Compound 292]
4 | 1 to 10 | OC(COCC1CCCCC1)CN1CCc2ccccc2C1 (stereo not shown) [Compound 294]
5 | 10 to 40 | CC(OCC(O)CN1CCc2ccccc2C1)c1cccnc1 (stereo not shown) [Compound 299]
6 | 0.101 to 1 | OC(COCC1COc2ccccc2O1)CN1CCc2ccccc2C1 (stereo not shown) [Compound 300]
7 | 1 to 10 | OC(COC1Cc2ccccc2C1)CN1CCc2ccccc2C1 (stereo not shown) [Compound 301]
8 | 1 to 10 | OC(COC1CCCC1)CN1CCc2ccccc2C1 (stereo not shown) [Compound 302]
9 | 1 to 10 | OC(COCC1CC1)CN1CCc2ccccc2C1 (stereo not shown) [Compound 303]
10 | 10 to 40 | OC(COCC1CCCO1)CN1CCc2ccccc2C1 (stereo not shown) [Compound 305]
11 | 10 to 40 | OC(COCc1ccccc1)CN1CCc2ccccc2C1 (stereo not shown) [Compound 308]
12 | 1 to 10 | OC(COC1CCCCCC1)CN1CCc2ccccc2C1 (stereo not shown) [Compound 309]
13 | 10 to 40 | OC(COC1CCOCC1)CN1CCc2ccccc2C1 (stereo not shown) [Compound 310]
14 | > 10 | CC(=O)N1CC(Nc2cc(CNCC(O)CN3CCc4ccccc4C3)ncn2)C1 (stereo not shown) [Compound 311]
15 | > 10 | CC(=O)N1CCC(Nc2cc(CNCC(O)CN3CCc4ccccc4C3)ncn2)CC1 (stereo not shown) [Compound 312]
16 | > 10 | CC(=O)N1CCC(Nc2cc(CNCC(O)CN3CCc4ccccc4C3)ccn2)CC1 (stereo not shown) [Compound 313]

More lines, now with the values behind:

Row | Compound | IC50 [µM]
17 | OC(COc1cccc(-c2ccc3c(c2)OCO3)c1)CN1CCc2ccccc2C1 (stereo not shown) [Compound 59, 1-(3-(benzo[d][1,3]dioxol-5-yl)phenoxy)-3-(3,4-dihydroisoquinolin-2(1H)-yl)propan-2-ol] | 0.101 to 1
18 | OC(COc1cccc(-c2ccc3nn[nH]c3c2)c1)CN1CCc2ccccc2C1 (stereo not shown) [Compound 84, 1-(3-(1H-benzo[d][1,2,3]triazol-6-yl)phenoxy)-3-(3,4-dihydroisoquinolin-2(1H)-yl)propan-2-ol] | 0.101 to 1
19 | COC(=O)c1cccc(-c2cccc(OCC(O)CN3CCc4ccccc4C3)c2)c1 (stereo not shown) [Compound 135] | 0.101 to 1
20 | CN1CCN(c2ccc(-c3cccc(OCC(O)CN4CCc5ccccc5C4)c3)cn2)CC1 (stereo not shown) [Compound 149] | 0.101 to 1
21 | COC(=O)c1cncc(-c2cccc(OCC(O)CN3CCc4ccccc4C3)c2)c1 (stereo not shown) [Compound 180] | 1 to 10
22 | OC(COc1cccc(-c2ccc3ncn(C4CNC4)c3c2)c1)CN1CCc2ccccc2C1 (stereo not shown) [Compound 208, 1-(3-(1-(azetidin-3-yl)-1H-benzo[d]imidazol-6-yl)phenoxy)-3-(3,4-dihydroisoquinolin-2(1H)-yl)propan-2-ol] | 0.101 to 1
23 | CNC(=O)Cn1cnc2ccc(-c3cccc(OCC(O)CN4CCc5ccccc5C4)c3)cc21 (stereo not shown) [Compound 262] | 0.101 to 1
24 | O=C(Cn1cnc2ccc(-c3cccc(OCC(O)CN4CCc5ccccc5C4)c3)cc21)N1CCOCC1 (stereo not shown) [Compound 264] | 0.101 to 1
25 | Cn1cnc2cc(-c3cc(NCC(O)CN4CCc5ccccc5C4)n[nH]3)ccc21 (stereo not shown) [Compound 272, 1-(3,4-dihydroisoquinolin-2(1H)-yl)-3-((5-(1-methyl-1H-benzo[d]imidazol-5-yl)-1H-pyrazol-3-yl)amino)propan-2-ol] | 0.101 to 1
26 | O=C(Nc1cc[nH]n1)c1cccc(OCC(O)CN2CCc3ccccc3C2)c1 (stereo not shown) [Compound 274] | 1 to 10
27 | COc1c(COCC(O)CN2CCc3ccccc3C2)ccc2ccccc12 (stereo not shown) [Compound 279] | 1 to 10
28 | OC(COCc1c(Cl)cccc1Cl)CN1CCc2ccccc2C1 (stereo not shown) [Compound 280] | 1 to 10
29 | OC(COCc1ccc(Cl)cc1Cl)CN1CCc2ccccc2C1 (stereo not shown) [Compound 281] | 1 to 10
30 | OC(COCc1ccccn1)CN1CCc2ccccc2C1 (stereo not shown) [Compound 282] | 10 to 40
31 | OC(COCc1cccnc1)CN1CCc2ccccc2C1 (stereo not shown) [Compound 283] | 10 to 40
32 | OC(COCc1ccncc1)CN1CCc2ccccc2C1 (stereo not shown) [Compound 284] | 10 to 40
33 | OC(COc1ccc2c(c1)OCO2)CN1CCc2ccccc2C1 (stereo not shown) [Compound 285] | 1 to 10
34 | CCCCNCc1cccc(COCC(O)CN2CCc3ccccc3C2)c1 (stereo not shown) [Compound 286] | 0.101 to 1
35 | CC(C)(C)OC(=O)N1CCC(OCC(O)CN2CCc3ccccc3C2)C1 (stereo not shown) [Compound 287] | 1 to 10
36 | COc1cccc(COCC(O)CN2CCc3ccccc3C2)c1 (stereo not shown) [Compound 288] | 1 to 10

Tested on: Z-138 cells
Assay: Z-138 Proliferation Assay (Cell Titer Glo, 5 days)
Type: cell-based
Details: Homo sapiens, 120 h
Source text: Z-138 Proliferation Assay
Z-138 suspension cells were purchased from ATCC (American Type Culture Collection, Manassas, Va.). RPMI/Glutamax medium, penicillin-streptomycin, heat inactivated fetal bovine serum were purchased from Life Technologies, Grand Island, N.Y., USA. V-bottom polypropylene 384-well plates were purchased from Greiner Bio-One, Monroe, N.C., USA. Cell culture 384-well white opaque plates were purchased from Perkin Elmer, Waltham, Mass., USA. Cell-Titer Glo® was purchased from Promega Corporation, Madison, Wis., USA. SpectraMax M5 plate reader was purchased from Molecular Devices LLC, Sunnyvale, Calif., USA.
Z-138 suspension cells were maintained in growth medium (RPMI 1640 supplemented with 10% v/v heat inactivated fetal bovine serum and cultured at 37° C. under 5% CO2 Under assay conditions, cells were incubated in assay medium (RPMI 1640 supplemented with 10% v/v heat inactivated fetal bovine serum and 100 units/mL penicillin-streptomycin) at 37° C. under 5% CO2.
For the assessment of the effect of compounds on the proliferation of the Z-138 cell line, exponentially growing cells were plated in 384-well white opaque plates at a density of 10,000 cells/ml in a final volume of 50 μl of assay medium. A compound source plate was prepared by performing triplicate nine-point 3-fold serial dilutions in DMSO, beginning at 10 mM (final top concentration of compound in the assay was 20 μM and the DMSO was 0.2%). A 100 nL aliquot from the compound stock plate was added to its respective well in the cell plate. […] After addition of compounds, assay plates were incubated for 5 days at 37° C., 5% CO2, relative humidity>90%.
Cell viability was measured by quantitation of ATP present in the cell cultures, adding 35 μl of Cell Titer Glo® reagent to the cell plates. Luminescence was read in the SpectraMax M5 microplate reader. The concentration of compound inhibiting cell viability by 50% was determined using a 4-parametric fit of the normalized dose response curves.

Row | Compound | EC50 [µM]
37 | Cn1cnc2ccc(-c3cccc(OCC(O)CN4CCc5ccccc5C4)c3)cc21 (stereo not shown) [Compound 45, 1-(3,4-dihydroisoquinolin-2(1H)-yl)-3-(3-(1-methyl-1H-benzo[d]imidazol-6-yl)phenoxy)propan-2-ol] | 1 to 10
38 | OC(COc1cccc(-c2ccc3c(c2)OCO3)c1)CN1CCc2ccccc2C1 (stereo not shown) [Compound 59, 1-(3-(benzo[d][1,3]dioxol-5-yl)phenoxy)-3-(3,4-dihydroisoquinolin-2(1H)-yl)propan-2-ol] | 10 to 40
39 | OC(COc1cccc(-c2ccc3nn[nH]c3c2)c1)CN1CCc2ccccc2C1 (stereo not shown) [Compound 84, 1-(3-(1H-benzo[d][1,2,3]triazol-6-yl)phenoxy)-3-(3,4-dihydroisoquinolin-2(1H)-yl)propan-2-ol] | 1 to 10
40 | Cn1cnc2ccc(-c3ccnc(NCC(O)CN4CCc5ccccc5C4)c3)cc21 (stereo not shown) [Compound 118, 1-(3,4-Dihydroisoquinolin-2(1H)-yl)-3-((4-(1-methyl-1H-benzo[d]imidazol-6-yl)pyridin-2-yl)amino)propan-2-ol] | 1 to 10
41 | COC(=O)c1cccc(-c2cccc(OCC(O)CN3CCc4ccccc4C3)c2)c1 (stereo not shown) [Compound 135] | > 20
42 | CN1CCN(c2ccc(-c3cccc(OCC(O)CN4CCc5ccccc5C4)c3)cn2)CC1 (stereo not shown) [Compound 149] | 1 to 10
43 | Cn1cnc2ccc(-c3cccc(OC[C@@H](O)CN4CCc5ccccc5C4)c3)cc21 [Compound 173] | 1 to 10
44 | Cn1cnc2ccc(-c3cccc(OC[C@H](O)CN4CCc5ccccc5C4)c3)cc21 [Compound 174] | 1 to 10
45 | COC(=O)c1cncc(-c2cccc(OCC(O)CN3CCc4ccccc4C3)c2)c1 (stereo not shown) [Compound 180] | > 20
46 | Cn1cnc2ccc(-c3cccc(OCC(O)CN4CCc5ccccc5C4)c3)nc21 (stereo not shown) [Compound 189, 1-(3,4-dihydroisoquinolin-2(1H)-yl)-3-(3-(3-methyl-3H-imidazo[4,5-b]pyridin-5-yl)phenoxy)propan-2-ol] | 0.101 to 1
47 | OC(COc1cccc(-c2ccc3ncn(C4CNC4)c3c2)c1)CN1CCc2ccccc2C1 (stereo not shown) [Compound 208, 1-(3-(1-(azetidin-3-yl)-1H-benzo[d]imidazol-6-yl)phenoxy)-3-(3,4-dihydroisoquinolin-2(1H)-yl)propan-2-ol] | 1 to 10
48 | CNC(=O)Cn1cnc2ccc(-c3cccc(OCC(O)CN4CCc5ccccc5C4)c3)cc21 (stereo not shown) [Compound 262] | 1 to 10
49 | O=C(Cn1cnc2ccc(-c3cccc(OCC(O)CN4CCc5ccccc5C4)c3)cc21)N1CCOCC1 (stereo not shown) [Compound 264] | 1 to 10
50 | Cc1ncc2ccc(-c3cccc(OCC(O)CN4CCc5ccccc5C4)c3)cn12 (stereo not shown) [Compound 266, 1-(3,4-dihydroisoquinolin-2(1H)-yl)-3-(3-(3-methylimidazo[1,5-a]pyridin-6-yl)phenoxy)propan-2-ol] | 1 to 10
51 | Cn1cnc2ccc(-c3ccnc(NC[C@H](O)CN4CCc5ccccc5C4)c3)cc21 [Compound 275] | 1 to 10
52 | Cn1cnc2ccc(-c3ccnc(NC[C@@H](O)CN4CCc5ccccc5C4)c3)cc21 [Compound 276] | 1 to 10
